Measurements: patent publication US8828908B2, “Herbicidally active bicyclic 1,3-dione compounds” (Syngenta Limited, priority 2007, dated 2014)

Columns and labels:
Format in all cases: in vivo
[1] = tested on: Alopecurus myosuroides (ALOMY); assay: Example A pre-emergence herbicidal glasshouse test; details: 312 h, Rate 250 g/ha, evaluated after 13 days, 100=total damage to plant, 0=no damage to plant
Protocol: (§1) Seeds of a variety of test species were sown in standard soil in pots. After cultivation for one day (pre-emergence) or after 8 days cultivation (post-emergence) under controlled conditions in a glasshouse (at 24/16° C., day/night; 14 hours light; 65% humidity), the plants were sprayed with an aqueous spray solution derived from the formulation of the technical active ingredient in acetone/water (50:50) solution containing 0.5% Tween 20 (polyoxyethelyene sorbitan monolaurate, CAS RN 9005-64-5). The test plants were then grown in a glasshouse under controlled conditions in a glasshouse (at 24/16° C., day/night; 14 hours light; 65% humidity) and watered twice daily. After 13 days for pre and post-emergence, the test was evaluated (100=total damage to plant; 0=no damage to plant).
(§2) Alopecurus myosuroides (ALOMY), Avena fatua (AVEFA), Setaria faberi (SETFA), Echinochloa crus-galli (ECHCG), Solanum nigrum (SOLNI) and Amaranthus retroflexus (AMARE)

[2] = tested on: Amaranthus retroflexus (AMARE); assay: Example A pre-emergence herbicidal glasshouse test; details: 312 h, Rate 250 g/ha, evaluated after 13 days, 100=total damage to plant, 0=no damage to plant
Protocol: as §1, §2

[3] = tested on: Avena fatua (AVEFA); assay: Example A pre-emergence herbicidal glasshouse test; details: 312 h, Rate 250 g/ha, evaluated after 13 days, 100=total damage to plant, 0=no damage to plant
Protocol: as §1, §2

[4] = tested on: Echinochloa crus-galli (ECHCG); assay: Example A pre-emergence herbicidal glasshouse test; details: 312 h, Rate 250 g/ha, evaluated after 13 days, 100=total damage to plant, 0=no damage to plant
Protocol: as §1, §2

[5] = tested on: Setaria faberi (SETFA); assay: Example A pre-emergence herbicidal glasshouse test; details: 312 h, Rate 250 g/ha, evaluated after 13 days, 100=total damage to plant, 0=no damage to plant
Protocol: as §1, §2

[6] = tested on: Alopecurus myosuroides (ALOMY); assay: Example A post-emergence herbicidal glasshouse test; details: 312 h, evaluated after 13 days, 100=total damage to plant, 0=no damage
Protocol: as §1, §2

[7] = tested on: Amaranthus retroflexus (AMARE); assay: as above; details: 312 h, evaluated after 13 days, 100=total damage to plant, 0=no damage
Protocol: as §1, §2

[8] = tested on: Avena fatua (AVEFA); assay: as above; details: 312 h, evaluated after 13 days, 100=total damage to plant, 0=no damage
Protocol: as §1, §2

[9] = tested on: Echinochloa crus-galli (ECHCG); assay: as above; details: 312 h, evaluated after 13 days, 100=total damage to plant, 0=no damage
Protocol: as §1, §2

[10] = tested on: Setaria faberi (SETFA); assay: as above; details: 312 h, evaluated after 13 days, 100=total damage to plant, 0=no damage
Protocol: as §1, §2

Compound	pest or weed control at 250 g/ha [1] [%]	pest or weed control at 250 g/ha [2] [%]	pest or weed control at 250 g/ha [3] [%]	pest or weed control at 250 g/ha [4] [%]	pest or weed control at 250 g/ha [5] [%]	pest or weed control at 250 g/ha [6] [%]	pest or weed control at 250 g/ha [7] [%]	pest or weed control at 250 g/ha [8] [%]	pest or weed control at 250 g/ha [9] [%]	pest or weed control at 250 g/ha [10] [%]
CCc1ccc(-c2cccc(Cl)c2)cc1C1=C(O)[C@H]2CC[C@H](C2)C1=O (single isomer, unassigned) [Compound T38]	0	0	0	60	0	20	0	0	70	40
Cc1ccc(-c2ccc(Cl)cc2C(F)(F)F)cc1C1=C(O)[C@H]2CC[C@H](C2)C1=O (single isomer, unassigned) [Compound T42]	0	0	0	0	0	0	0	0	0	0
Cc1ccc(-c2cccc(C(F)(F)F)c2)cc1C1=C(O)[C@H]2CC[C@H](C2)C1=O (single isomer, unassigned) [Compound T22]	0	0	0	20	10	0	0	0	20	50
COc1ccc(-c2ccc(Cl)cc2Cl)cc1C1=C(O)[C@H]2CC[C@H](C2)C1=O [Compound T53]	0	0	0	0	0	0	0	0	30	80
Cc1ccc(-c2ccc(C)c(C3=C(O)[C@H]4CC[C@H](C4)C3=O)c2)cc1Cl (single isomer, unassigned) [Compound T49]	0	0	0	30	0	0	0	0	30	30
CCc1ccc(-c2cc(Cl)ccc2OC)cc1C1=C(O)[C@H]2CC[C@H](C2)C1=O (single isomer, unassigned) [Compound T40]	0	0	0	0	0	0	0	0	0	0
CCOc1ccc(-c2ccc(Cl)cc2)cc1C1=C(O)[C@H]2CC[C@H](C2)C1=O [Compound T52]	0	0	0	0	0	40	0	0	80	90
Cc1ccc(-c2cc(Cl)ccc2C)cc1C1=C(O)[C@H]2CC[C@H](C2)C1=O (single isomer, unassigned) [Compound T50]	0	0	0	0	0	0	0	0	30	0
